Measurements published in paper PMC10699038, “Identifying molecular tags selectively retained on the surface of brain endothelial cells to generate artificial targets for therapy delivery” (Fluids and Barriers of the CNS, 2023).

System: b.End3 cells
Test: Peptide-mediated protein (avidin-FITC/albumin-FITC) delivery to b.End3 cells
Assay type: cell-based, mouse
Conditions: N-terminal biotin peptide, increasing concentrations, 1 h, 4 °C, avidin-FITC 50 µg/mL, 30 min, fluorescence, 3 independent experiments, triplicate
Procedure: Confluent endothelial monolayers were treated with increasing peptide concentrations in HBSS (1 h at 4 °C, unless otherwise stated). After removing unbound peptide, cells were either incubated in appropriate cell culture medium (37 °C) for varying time-points, or directly treated with neutravidin-FITC or albumin-FITC (0.83 mM, in HBSS, 30 min at 4 °C). After removing unbound protein with thorough HBSS washes, fluorescence (490/525 em/ex) was quantified with a Spark multimode microplate reader (Tecan) or imaged through confocal microscopy (Additional file 1: Diagram S1a–c).

HAIYPRH [Tf peptide]
Avidin delivery to b.End3 cells: lower avidin delivery than CFAG
